Laboratory results reported in article PMC10033663, “Acute pharmacological profile of 2C-B-Fly-NBOMe in male Wistar rats—pharmacokinetics, effects on behaviour and thermoregulation” (Frontiers in Pharmacology, 2023).
Read-outs that look alike come from different tables or passages of the source.

How the values were obtained:
[1] = PET; ref Ettrup et al., 2011; cited from earlier work
[2] = Pharmacokinetics of 2C-B-Fly-NBOMe in blood serum and brain tissue (LC/MS); type: in vivo, male Wistar rats; details: for k el: read-out: ke (h^-1) elimination rate constant (converted)
Description: For the pharmacokinetic study, rats were treated with 1 mg/kg s. c. of 2C-B-Fly-NBOMe and then sacrificed by decapitation after 0.5, 1, 2, 4, 8 and 24 h (n = 8 per time point). Collected blood was left to clot in a refrigerator for 1 h, then centrifuged for 10 min at 1500 g, 10°C, and the separated serum was collected. Whole brains were excised manually using surgical instruments. All serum and brain samples were stored at −20°C until the analysis.
200 μl of blood serum was diluted in a microtube with 200 μl of 1% ammonia solution and homogenized in a Bullet Blender tissue homogenizer (speed 2, time 5 min). Next, 400 μl of ethyl acetate was added by the automatic dispenser and the whole content was homogenized again (speed 3, time 5 min), additional 400 μl of ethyl acetate was added and the sample was homogenized for the last time. The homogenate was centrifuged (10 min, 25°C, 12,000 RPM), 600 μl of the top layer was transferred into a new microtube and 50 μl of 10% formic acid solution was added. After proper shaking, the solution was evaporated in the CentriVap concentrator. The residue was then dissolved in 100 μl of methanol and shaken for 10 min. Prior to the analysis, the solution was diluted 1:1 in deionized water, mixed and centrifuged.
100 µL of 1% ammonium hydroxide solution was added to 200 mg of brain tissue. A mixture was homogenized with 200 mg of zirconium oxide beads in a BulletBlender for 10 min (speed 5). 400 μL of ethyl acetate was added to the mixture and homogenized (BulletBlender, speed 3, time 5 min). Additional 400 µL of ethyl acetate was added to the mixture and homogenized (BulletBlender, speed 3, time 5 min). Samples were centrifuged (10 min, 25°C, 12,000 RPM), 400 µL of supernatant was acidified and completely evaporated (Centrivap Concentrator). The dry residue was reconstituted with 400 µL of methanol. Prior to the analysis, 250 µL of the solution was diluted with 750 µL of water, mixed, and centrifuged (0.2 µm PVDF filter).
The samples were analysed using ultra-high performance liquid chromatography-tandem mass spectrometry instrumentation (1,290 Infinity—6,460 Triple Quadrupole LC/MS Agilent Technologies with AJS electrospray ionization source). A column Kinetex Biphenyl (100 × 2.1 mm, 2.6 µm) with a pre-column was used for a chromatographic separation at 35°C with gradient elution in a system of 5 mM ammonium formate with 0.01% (v/v) formic acid (mobile phase A) and methanol with 0.01% (v/v) formic acid (mobile phase B). The gradient started at 10% B, increased from 10% to 50% B in 0.5 min and from 50% to 100% B in 1.5 min, held for 2 min at 100% B, decreased to 10% B in 0.5 min and held for 2 min at 10% B. Data were acquired in positive electrospray ionization (ESI) mode using a multiple reaction monitoring method, one quantification ion and three confirmation ions were used. 2C-B-Fly-NBOMe was quantified using an external matrix-matched calibration. The limit of quantification was 1 ng/ml (1 ng/g for brain tissue). The matrix-matched calibration was performed in duplicates; real samples were also processed in duplicates.
For the pharmacokinetic data, a one-compartment model with a first-order absorption equation ([Wijnand, 1988]) was fitted using a cubic spline interpolation: Ct=D·ka·F/V/ka−ke×expke·t−exp(−ka·t Where C = 2C-B-Fly-NBOMe concentration, t = time, D = dose, ka = absorption rate constant, F = bioavailability, V = volume of distribution, ke = elimination rate constant.
The half-life of the drug elimination was calculated using Package PKNCA version 0.9.4 implemented in R software ([Buckeridge et al., 2015]).

[3] = ref Richter et al. (2020); cited from earlier work
[4] = brain, 1 mg/kg s. c., mean ± SEM
[5] = male, Wistar, rat, sc, brain, 1 mg/kg s. c., mean ± SEM
[6] = male, Wistar, rat, sc, serum, 1 mg/kg s. c., mean ± SEM
[7] = serum, 1 mg/kg s. c., mean ± SEM

SMILES: COc1ccccc1CNCCc1c2c(c(Br)c3c1OCC3)OCC2 [2C-B-Fly-NBOMe]
- cortical uptake [1]: highest cortical uptake among the examined NBOMes
- penetration of brain tissue [1]: readily penetrated the brain tissue
- Maximum mean concentration ([2]; blood serum, 1 mg/kg s. c.): 28 ng/mL
- Time of maximum mean concentration ([2]; blood serum, 1 mg/kg s. c.): ≤ 0.5 h
- Time of peak drug concentration ([2]; brain tissue, 1 mg/kg s. c.): 60 min
- passage through the blood-brain barrier ([2]; brain versus serum concentration, 1 mg/kg s. c.): readily passes through the blood-brain barrier
- AUC0-24 h [2, 4]: 826.3 ± 112.6 ng·h/g
- ka (h^-1) absorption rate constant [2, 4]: 0.685 ± 0.034 h⁻¹
- Tmax ([2]; male, Wistar, rat, sc, brain, 1 mg/kg s. c.): 66 min
- half-life ([2]; male, Wistar, rat, sc, brain, 1 mg/kg s. c., Table 1, read-out: t1/2 (converted)): 192 min
- Cmax [2, 5]: 159 ± 15.3 ng/g
- k el [2, 5]: 0.655 h⁻¹
- Tmax ([2]; male, Wistar, rat, sc, serum, 1 mg/kg s. c.): 48 min
- half-life ([2]; male, Wistar, rat, sc, serum, 1 mg/kg s. c., Table 1, read-out: t1/2 (converted)): 153 min
- Cmax [2, 6]: 28.4 ± 6.33 ng/mL
- bioavailability ([2]; male, Wistar, rat, sc, serum, 1 mg/kg s. c., mean ± SEM, one-compartment model, read-out: F (%) bioavailability): 96.1 ± 4.8%
- AUC(0-t) ([2]; male, Wistar, rat, sc, serum, 1 mg/kg s. c., mean ± SEM, read-out: AUC0-24 h): 115 ± 25.6 ng·h/mL
- k el [2, 6]: 0.733 h⁻¹
- half-life ([2]; male, Wistar, rat, subcutaneous, blood serum, 1 mg/kg s. c., read-out: half-life of elimination (converted)): 93.6 min
- half-life ([2]; male, Wistar, rat, subcutaneous, brain, 1 mg/kg s. c., read-out: half-life of elimination (converted)): 144 min
- concentration at 8 h ([2]; male, Wistar, rat, subcutaneous, brain, 8 h after 1 mg/kg s. c.): 21 ng/g
- Time of peak drug concentration ([2]; serum, 1 mg/kg s. c.): 30 min
- V d (mL) volume of distribution [2, 7]: 7.231 ± 0.362 mL
- ka (h^-1) absorption rate constant [2, 7]: 0.731 ± 0.036 h⁻¹
- presence in serum after 8 h ([2]; serum, 8 h after 1 mg/kg s. c.): almost undetectable
- number of phase I metabolites [3]: five
- number of phase II metabolites [3]: one
